Source: publication PMC9865752, “Design and Synthesis of (Z)-2-(Benzylamino)-5-benzylidenethiazol-4(5H)-one Derivatives as Tyrosinase Inhibitors and Their Anti-Melanogenic and Antioxidant Effects” (Molecules, 2023)

Columns and labels:
mushroom tyrosinase = molecular target: T1, mushroom tyrosinase (Agaricus bisporus, UniProt C7FF04); experiment: Kinetic studies of mushroom tyrosinase inhibition (Lineweaver–Burk and Dixon plots); format: biochemical; conditions: substrate L-dopa
T1 construct: purchased
T1 sequence (C7FF04 1-392): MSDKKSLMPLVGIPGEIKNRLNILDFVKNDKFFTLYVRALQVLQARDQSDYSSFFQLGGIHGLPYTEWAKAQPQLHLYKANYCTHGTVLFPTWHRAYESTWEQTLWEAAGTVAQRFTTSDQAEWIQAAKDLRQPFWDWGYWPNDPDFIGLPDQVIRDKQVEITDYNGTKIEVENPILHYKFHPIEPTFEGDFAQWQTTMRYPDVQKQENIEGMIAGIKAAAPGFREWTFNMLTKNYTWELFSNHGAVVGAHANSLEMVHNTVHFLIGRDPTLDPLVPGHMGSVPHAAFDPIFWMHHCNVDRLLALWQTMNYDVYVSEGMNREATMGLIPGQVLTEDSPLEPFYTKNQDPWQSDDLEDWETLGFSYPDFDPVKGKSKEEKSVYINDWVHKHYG
Method: Kinetic studies using Lineweaver–Burk plots were performed using four different concentrations (0, 0.5, 1, and 2 µM) of the test derivatives (7 and 8) and five different concentrations (0.5, 1, 2, 4, and 8 mM for 7, and 1, 2, 4, 8, and 16 mM for 8) of L-dopa.
Lineweaver–Burk plots for 7 and 8 were transformed into the corresponding Dixon plots to determine their inhibition constant (Ki) values for the mushroom tyrosinase–inhibitor complex. […] The Ki values for the mushroom tyrosinase–inhibitor complex were obtained from the x-axis value of each convergence point.
Lineweaver–Burk plots of derivatives 7 and 8 were obtained in the presence of L-dopa as the substrate. Briefly, 20 µL aliquots of mushroom tyrosinase aqueous solution (200 units/mL) were added to each well of a 96-well plate containing 10 µL BABT derivative (7 or 8) DMSO solution (final concentrations: 0, 0.5, 1, and 2 µM) and 170 µL of an aqueous solution containing L-dopa (final concentrations: 1.0, 2.0, 4.0, 8.0, and 16.0 mM) and sodium phosphate buffer (pH 6.5, 17.2 mM). The initial rate of dopachrome formation was determined by examining the changes in absorbance at a wavelength of 475 nm (ΔOD475/min) using a microplate reader (VersaMax; Molecular Devices).

[1] = SIN-1-induced ROS scavenging assay; conditions: 20 µM; SIN-1 as ROS generator; DCFH-DA probe
Description: The scavenging activities of the BABT derivatives 1–14 against ROS and peroxynitrite (ONOO^−) were investigated because the antioxidant activities of the compounds may modulate melanogenesis. To measure the ROS scavenging activities of BABT derivatives, 2′,7′-dichlorodihydrofluorescein diacetate (DCFH-DA) and 3-morpholinosydnonimine (SIN-1) were used as a fluorogenic probe and ROS generator, respectively. The reaction of DCFH-DA with esterase produces 2′,7′-dichlorodihydrofluorescein (DCFH), which generates the fluorescent compound 2′,7′-dichlorofluorescein (DCF) by reacting with ROS produced by SIN-1. Therefore, ROS scavenging activities were determined by measuring the DCF fluorescence remaining after the BABT derivatives scavenged the ROS generated by SIN-1. […] BABT derivatives and Trolox, the positive control, were used at a concentration of 20 µM.
The ROS scavenging activities of the BABT derivatives were measured using an oxidant-sensitive fluorescent probe. Derivatives or Trolox (10 µL; final concentration: 20 µM) were seeded in a black 96-well plate. Then, 10 µL of SIN-1 (10 µM) was added to induce radical species generation and mixed with 180 µL of sodium phosphate buffer (pH 7.4) containing 12.5 µM DCF-DA and 600 units of esterase. Fluorescence intensity was measured at emission and excitation wavelengths of 535 and 485 nm, respectively, using a fluorescence microplate reader (Berthold Technologies GmbH & Co., Wien, Austria). Trolox was used as the positive control.

[2] = test system: microphthalmia-associated transcription factor (MITF); experiment: Western blotting of MITF protein expression; format: cell-based, murine
Method: We investigated whether, in addition to the direct inhibition of tyrosinase, another inhibitory mechanism of melanogenesis by derivative 8 may be related to the expression of proteins involved in melanogenesis. For the Western blotting experiment, B16F10 cells were treated with α-MSH (1 µM) plus IBMX (200 µM), leading to a 1.7- and 4.9-fold increase in expression levels of melanogenesis-associated proteins tyrosinase and MITF, compared to those in the untreated control (100%) (Figure 13).
B16F10 cells were seeded in a 60 mm dish at a density of 5 × 10^5 cells/mL for 24 h, washed with cold PBS, and harvested. Cytosolic and nuclear fractions of cell lysates were extracted using lysis buffer, as described previously. Protein concentrations in the cell lysates were estimated using the BCA protein assay (Pierce, Rockford, IL, USA). […] The membranes were washed and protein bands detected using the SuperSignal West Pico Chemiluminescence assay kit (Advansta, San Jose, CA, USA) and the Davinch–Chem program (Davinch-K, Seoul, Republic of Korea). Immunoblotting data were quantified using CS Analyzer 3.2 (Densitograph) image analysis software (http://www.attokorea.co.kr, accessed on 21 November 2022).

[3] = Peroxynitrite scavenging assay; conditions: 20 µM; SIN-1 as generator; DHR123 probe
Method: The effects of the BABT derivatives on peroxynitrite scavenging activities were also examined using SIN-1 as an RNS generator and dihydrorhodamine (DHR123) as an ROS indicator. DHR123 was converted to fluorescent rhodamine 123 by peroxynitrite generated by SIN-1. Therefore, the peroxynitrite scavenging activities of 1–14 were assessed by measuring the fluorescence of rhodamine 123. BABT derivatives and penicillamine, the positive control, were used at a concentration of 20 µM.
The peroxynitrite scavenging activities of the BABT derivatives were assessed using the method developed by Kooy, involving the monitoring of highly fluorescent rhodamine 123, which was rapidly produced from non-fluorescent DHR123 in the presence of peroxynitrite. Rhodamine buffer (pH 7.4) was composed of 50 mM sodium phosphate dibasic, 50 mM sodium phosphate monobasic, 90 mM sodium chloride, 5 mM potassium chloride, and 100 µM DTPA. A 10 µL aliquot of BABT derivatives or PCA (final concentration: 20 µM) was seeded in a black 96-well plate. Then, 10 µL of SIN-1 (10 µM) was added to induce radical species generation and mixed with 180 µL of rhodamine buffer. Fluorescence intensity was measured at emission and excitation wavelengths of 535 and 485 nm, respectively, using a fluorescence microplate reader (Berthold Technologies GmbH & Co.). PCA was used as the positive control.

Ki (mushroom tyrosinase; Dixon plots, read-out: inhibition constant (Ki) for the mushroom tyrosinase–inhibitor complex): 810 nM | mode of inhibition (mushroom tyrosinase; Lineweaver–Burk plots): competitive inhibitors
Compound: O=C1N=C(NCc2ccccc2)S/C1=C\c1ccc(O)cc1O [Compound 8, (Z)-2-(benzylamino)-5-(2,4-dihydroxybenzylidene)thiazol-4(5H)-one]
ROS scavenging activity (in words) [1]: did not show significant ROS scavenging effect | relative expression level of MITF protein ([2]; 10 µM, α-MSH plus IBMX treated B16F10 cells): lowered the protein expression to the same or lower control levels | relative expression level of MITF protein ([2]; 5, 10 and 20 µM, α-MSH (1 µM) plus IBMX (200 µM) treated B16F10 cells): significantly reduced the relative expression levels of tyrosinase and MITF in a dose-dependent manner | peroxynitrite scavenging activity (in words) [3]: scavenged peroxynitrite more potently than did penicillamine
